Assay [1] deals with pigmented reconstructed epidermis. As to the kind of experiment: Test on pigmented reconstructed epidermis samples (melanin quantified by image analysis). Type of assay: cell-based, human. As to conditions: pValue<0.05, control DMSO. How it is done: […] EP 1 878 790). The control is DMSO. The melanin was quantified by image analysis on histological slices after staining with Fontana Masson dye. Each sample of coloured epidermis is photographed over its entire length using a camera connected to a microscope. The melanin is thresholded and the number of melanin pixels is measured in each field using automated image analysis software. A non-parametric statistical test is performed in order to determine the significance of the measurements (Mann-Whitney test).
The pigmented reconstructed epidermis standard study model was published by:
Regnier M, Duval C, Galey J B, Philippe M, Lagrange A, Tuloup R, Schmidt R, Cellular and Molecular Biology, 1999, 45, 7, 969-980: “Keratinocyte-Melanocyte co-cultures and pigmented reconstructed human epidermis: models to study modulation of melanogenesis”.

In the next assay the test system is normal human melanocytes. The assay can be described thus: Depigmenting activity (reduction of melanin production) in normal human melanocytes in vitro. Type of assay: cell-based. The following applies: Melanocyte, read-out: IC50 (concentration at which 50% decrease in melanin synthesis is achieved). The procedure:
The measurement of the depigmenting activity (reduction of melanin production) of compounds of formula (I) was carried out by assaying normal human melanocytes in vitro as follows.
First of all, normal human melanocytes are cultured and dispensed into 384 wells. After 24 hours, the culture medium was replaced with a medium containing compounds of formula (I) to be evaluated. The cells were incubated for 72 hours before measuring the final optical density, which measures the amount of melanin produced by the melanocytes. A dose-effect is performed using a wide concentration range of the compounds evaluated. Thus, by making the concentrations and the melanin measurements correspond, it is possible to determine an IC50 in μM: concentration at which 50% decrease in melanin synthesis is achieved. The highest concentration used in the test is 200 μM.

Where [2] appears, read: normal human melanocytes, 72 hours incubation, optical density, highest concentration 200 μM.
Where [3] appears, read: Homo sapiens, another campaign, comparison with closest prior art compound of FR 2 968 661.

Like-named read-outs stand apart in the source and are kept apart here.

Consider `O=C(O)CNC(=O)c1ccc[nH]c1=S` [Compound 1, N-[(2-thioxo-1,2-dihydropyridin-3-yl)carbonyl]glycine], for which the “depigmenting activity (melanin quantification, Mann-Whitney test)” value (“depigmenting activity” for short) in assay [1] (at 100 μM) is reported as “Significant depigmenting activity”. The IC50 in the assay with normal human melanocytes (setting [2]) came to 11.4 µM.

As for `CCOC(=O)C(C)NC(=O)c1ccc[nH]c1=S` (stereo not shown) [reference compound], in the assay with normal human melanocytes (setting [3]), the IC50 worked out at 37.4 µM.

Take `CCOC(=O)CN(C)C(=O)c1ccc[nH]c1=S` [Compound 4, Ethyl N-methyl-N-[(2-thioxo-1,2-dihydropyridin-3-yl)carbonyl]glycinate]: the “depigmenting activity” value in assay [1] (at 300 μM) is reported as “Significant depigmenting activity”. The IC50 in the assay with normal human melanocytes (setting [2]) was 67.6 µM.

`CN(CC(=O)O)C(=O)c1ccc[nH]c1=S` [Compound 2, N-methyl-N-[(2-thioxo-1,2-dihydropyridin-3-yl)carbonyl]glycine]: in assay [1] (at 100 μM), the “depigmenting activity” value was “Significant depigmenting activity”. The IC50 with normal human melanocytes (setting [2]) was determined as 5.27 µM.

For the compound `CCOC(=O)CNC(=O)c1ccc[nH]c1=S` [Compound 3, Ethyl N-[(2-thioxo-1,2-dihydropyridin-3-yl)carbonyl]glycinate], the “depigmenting activity” value in assay [1] (at 300 μM) was “Significant depigmenting activity”. Also, the IC50 was 20.8 µM in the assay with normal human melanocytes (setting [3]) and 36.8 µM in the assay with normal human melanocytes (setting [2]).

Source of the values: US20190380937A1, “PROCESS FOR DEPIGMENTING KERATIN MATERIALS USING THIOPYRIDINONE COMPOUNDS” (L'OREAL, priority 2015, published 2019).
